Data taken from US10993999B2, “Materials and methods for producing improved lentiviral vector particles” (IMMUNE DESIGN CORP., priority 2012, dated 2021).

Tested on: Human PBMCs (DCs, B-cells, T-cells)
Experiment: Transduction specificity in GM-CSF/IL-4 treated human PBMC culture
Settings: all cell populations

SMILES: Cc1ccnc2c1NC(=O)c1cccnc1N2C1CC1 [Nevirapine]
- effect of RT inhibitor on transduction: completely ablated
